Results reported in PMC8196580, “Identification of Kaurane-Type Diterpenes as Inhibitors of Leishmania Pteridine Reductase I” (Molecules, 2021).
Where two headings read alike, the source gives them in different places.

Assays:
L. major [1] = test system: L. major; parameters: method as in ChEMBL; details: ref ChEMBL, cited from earlier work
L. major [2] = experiment: ChEMBL dataset of pIC50 values against L. major used for the RF model (Table S1); format: cell-based, Leishmania major; note: call rule not given here
[3] = ChemBL structures with pIC50 values used for Random forest model construction (Table S1)
[4] = Active/Inactive class assigned to ChemBL structures for Random forest model construction (Table S1)
[5] = ChemBL structures with pIC50 values used for Random forest model construction, L. major
[6] = Active/Inactive class assigned to the ChEMBL pIC50 value for Random forest model construction, ref ChEMBL

| SMILES | pIC50 Value (L. major [1]; [3]) | Outcome (L. major [2]; [4]) | pIC50 Value (L. major [1]; [5]) | Outcome (L. major [2]; [6]) |
| --- | --- | --- | --- | --- |
| Cc1ccc2cc(C3CC(c4ccc(Br)s4)=NN3)c(Cl)nc2c1 (stereo not drawn) [CHEMBL2235715] | 5.64 | Active | – | – |
| Cn1cc(/C=N/c2ccc(Cl)cc2)c2ccccc21 [CHEMBL2071555] | 5.67 | Active | – | – |
| CCCCN1CSC(=S)N(C(C)c2ccccc2)C1 (stereo not drawn) [CHEMBL4287541] | – | – | 4.67 | Inactive |
| NC(=O)c1ccc(-c2c(-c3ccccc3)nc3ccccn23)cc1 [CHEMBL2151865] | – | – | 4.57 | Inactive |
| C[C@]12CC[C@H](O)C[C@@H]1CC[C@@H]1[C@@H]2CC[C@@]2(C)[C@H]1CC[C@@H]2[C@@](C)(O)c1cccnc1 [CHEMBL1214312] | – | – | 4.00 | Inactive |
| O=[N+]([O-])c1ccc(-c2nnc(NCc3cn(Cc4ccccc4)nn3)s2)o1 [CHEMBL1951522] | – | – | 4.71 | Inactive |
| CC1=C(C(=O)/C=C/c2ccc(Cl)cc2)C(c2ccccc2)NC(=O)N1C (stereo not drawn) [CHEMBL3785670] | 5.77 | Active | – | – |
| Cc1ccc2cc(C3CC(c4cc(Cl)sc4Cl)=NN3)c(Cl)nc2c1 (stereo not drawn) [CHEMBL2236142] | 5.75 | Active | – | – |
| COc1ccccc1C(=O)N/N=C/c1ccccc1O [CHEMBL2382037] | – | – | 4.45 | Inactive |
| Cl.N=C(NCC1CCCO1)c1ccc(N2CCN(c3nnc(-c4ccc([N+](=O)[O-])o4)s3)CC2)cc1 (stereo not drawn) [CHEMBL1783208] | – | – | 4.02 | Inactive |
| COc1ccc(-c2ccc(C(F)(F)F)cc2)c2c1C(C)=N[C@H](C)C2 [CHEMBL1278172] | – | – | 4.00 | Inactive |
| N#Cc1ccc(N2CCN(c3nnc(-c4ccc([N+](=O)[O-])o4)s3)CC2)cc1 [CHEMBL1783198] | – | – | 3.98 | Inactive |
| O=[N+]([O-])c1ccc(-c2nnc(N3CCN(c4ccccc4)CC3)s2)o1 [CHEMBL448103] | 7.00 | Active | – | – |
| CC1(C)Cc2c(Br)ccc(O)c2C=N1 [CHEMBL1275726] | – | – | 4.00 | Inactive |
| COc1cc(OC)c2c(C)[n+](-c3cccc4cc5ccccc5cc34)c(C)cc2c1.F[B-](F)(F)F [CHEMBL482394] | 6.14 | Active | – | – |
| O=C(c1ccccc1Cl)N1CCN(c2nnc(-c3ccc([N+](=O)[O-])o3)s2)CC1 [CHEMBL458179] | – | – | 4.97 | Inactive |
| CCCN1CN(CC(=O)OC)CSC1=S [CHEMBL4294585] | – | – | 3.69 | Inactive |
| Cc1ncc(-c2ccnc(Nc3ccc(S(C)(=O)=O)cc3)n2)n1C(C)C [CHEMBL488436] | 5.50 | Active | – | – |
| CN(C)Cc1ccc(Nc2c3ccc(N)cc3nc3cc(N)ccc23)cc1 [CHEMBL34804] | 5.30 | Active | – | – |
| O=[N+]([O-])c1ccc(-c2nc3ccccn3c2-c2ccccc2)cc1 [CHEMBL2151880] | – | – | 4.52 | Inactive |
| O=[N+]([O-])c1ccc(-c2nnc(NCc3cn(Cc4cccc(Cl)c4)nn3)s2)o1 [CHEMBL1951526] | – | – | 3.97 | Inactive |
| Cc1cccc2cc(C3CC(c4ccc(I)s4)=NN3)c(Cl)nc12 (stereo not drawn) [CHEMBL2236134] | 5.77 | Active | – | – |
| CN1CCN(c2nnc(-c3ccc([N+](=O)[O-])s3)s2)CC1 [CHEMBL371217] | – | – | 3.99 | Inactive |
| CCCCCCN(C)c1ccc(Nc2c3ccccc3nc3ccccc23)cc1OC [CHEMBL88682] | 6.22 | Active | – | – |

| SMILES | pIC50 Value (L. major [1]; [3]) | Outcome (L. major [2]; [4]) | pIC50 Value (L. major [1]; [5]) | Outcome (L. major [2]; [6]) |
| --- | --- | --- | --- | --- |
| CCCCCCOc1ccc(Nc2c3ccccc3nc3ccccc23)cc1 [CHEMBL89758] | 6.00 | Active | – | – |
| CC(=O)C1=C(C)N(C)C(=O)NC1c1ccccc1 (stereo not drawn) [CHEMBL3785882] | 5.59 | Active | – | – |
| COc1cccc2c1C(=O)C=C(C)C2=O [CHEMBL1531003] | 5.48 | Active | – | – |
| COc1ccc(-[n+]2c(C)cc3cc(OC)cc(OC)c3c2C)cc1.F[B-](F)(F)F [CHEMBL481565] | – | – | 4.00 | Inactive |
| Cc1cc(C2=NNC(c3cc4cccc(C)c4nc3Cl)C2)c(C)s1 (stereo not drawn) [CHEMBL2235721] | 5.58 | Active | – | – |
| O=C(/C=C/C1=Cc2cc(Cl)ccc2OC1)c1ccccc1F [CHEMBL1097964] | 5.65 | Active | – | – |
| COc1ccc(-c2ccc(OC)c3ccccc23)c2c1C=NCC2 [CHEMBL1277828] | – | – | 4.33 | Inactive |
| O=C(CN1CCOCC1)Nc1ccc2ncnc(Nc3ccc(OCc4cccc(F)c4)c(Cl)c3)c2c1 [CHEMBL3637894] | – | – | 4.91 | Inactive |
| COc1ccc(-c2csc3c2C2=NCCN2C=N3)cc1OC [CHEMBL1256890] | – | – | 4.00 | Inactive |
| COc1ccccc1C(=O)N/N=C/c1ccc(Br)c(F)c1 [CHEMBL2382032] | – | – | 4.11 | Inactive |
| CCOc1ccc(N2C(=O)C(c3ccc(C)cc3)(c3ccc(C)cc3)C2c2cn(C)c3ccccc23)cc1 (stereo not drawn) [CHEMBL2071566] | 5.90 | Active | – | – |
| COc1ccccc1C(=O)N/N=C/c1cccc(O)c1 [CHEMBL2382036] | – | – | 4.48 | Inactive |
| Nc1ccc(Nc2c3ccccc3nc3ccccc23)cn1 [CHEMBL84678] | 5.41 | Active | – | – |
| CCCCCN(CCCCC)c1ccc(Nc2c3ccccc3nc3ccccc23)cc1 [CHEMBL89031] | 6.80 | Active | – | – |
| O=C(CCl)N1c2ccccc2COc2ccc(Cl)cc21 [CHEMBL3758404] | – | – | 5.14 | Active |
| O=[N+]([O-])c1ccc2nc(-c3ccccc3)[nH]c2c1 [CHEMBL1164403] | 5.48 | Active | – | – |
| O=[N+]([O-])c1ccc(-c2nnc(N3CCNCC3)s2)s1 [CHEMBL193685] | – | – | 3.82 | Inactive |
| COc1cc(C)cc2c1C(=O)C=C(C1=C(C)C(=O)c3ccc(O)c(OC)c3C1=O)C2=O [CHEMBL2071225] | 10.28 | Active | – | – |
| Cc1ccc2cc(/C=C/C(=O)c3sccc3Br)c(Cl)nc2c1 [CHEMBL1940858] | 5.74 | Active | – | – |
| CC1=CCC[C@@]2(C)CC3=C(C[C@@H]12)C(=O)C=CC3=O [CHEMBL255103] | – | – | 4.77 | Inactive |
| COc1cc(/C=N/NC(=O)c2ccccc2OC)cc(OC)c1 [CHEMBL2382053] | – | – | 4.27 | Inactive |
| Cc1ccc2cc(/C=C/C(=O)c3sccc3C)c(Cl)nc2c1 [CHEMBL1940851] | 5.55 | Active | – | – |
| COc1ccc(-c2nnc3sc(-c4ccc(F)cc4)nn23)cc1 [CHEMBL1256800] | – | – | 4.00 | Inactive |
| O=C(c1cccs1)N1CCN(c2nnc(-c3ccc([N+](=O)[O-])s3)s2)CC1 [CHEMBL464864] | – | – | 4.55 | Inactive |
